Laboratory results from patent US10327446B2, “Naphthyl- or isoquinolinyl-substituted isothiazoline compounds” (BOEHRINGER INGELHEIM ANIMAL HEALTH USA INC., priority 2013, dated 2019).

Columns and labels:
[1] = test system: Diamond Back Moth (Plutella xylostella); assay: Diamond back moth leaf-dip test; type: in vivo; conditions: cabbage leaves dipped, 3rd instar larvae, 72 hours after treatment, read-out: mortality in comparison with untreated controls
Protocol: B.1 Diamond Back Moth (Plutella xylostella)
The active compound was dissolved at the desired concentration in a mixture of 1:1 (vol:vol) distilled water:aceteone. Surfactant (Kinetic HV) was added at a rate of 0.01% (vol/vol). The test solution was prepared at the day of use.
Leaves of cabbage were dipped in test solution and air-dried. Treated leaves were placed in petri dishes lined with moist filter paper and inoculated with ten 3rd instar larvae. Mortality was recorded 72 hours after treatment. Feeding damages were also recorded using a scale of 0-100%.

[2] = test system: Vetch Aphid (Megoura viciae); assay: Vetch aphid broad bean leaf disk test; type: in vivo; conditions: foliar, 120 h, sprayed onto broad bean leaf disks, adult aphids, 5 days, read-out: mortality in comparison with untreated controls
Protocol: B.4 Vetch Aphid (Megoura viciae)
For evaluating control of vetch aphid (Megoura viciae) through contact or systemic means the test unit consisted of 24-well-microtiter plates containing broad bean leaf disks.
The compounds were formulated using a solution containing 75% v/v water and 25% v/v DMSO. Different concentrations of formulated compounds were sprayed onto the leaf disks at 2.5 μl, using a custom built micro atomizer, at two replications.
After application, the leaf disks were air-dried and 5-8 adult aphids placed on the leaf disks inside the microtiter plate wells. The aphids were then allowed to suck on the treated leaf disks and incubated at about 23±1° C. and about 50±5% relative humidity for 5 days. Aphid mortality and fecundity was then visually assessed.

[3] = test system: Tobacco Budworm (Heliothis virescens); assay: Tobacco budworm microtiter plate diet test; type: in vivo; conditions: 120 h, sprayed onto insect diet with eggs, egg and larval mortality after 5 days, read-out: mortality in comparison with untreated controls
Protocol: B.5 Tobacco Budworm (Heliothis virescens)
For evaluating control of tobacco budworm (Heliothis virescens) the test unit consisted of 96-well-microtiter plates containing an insect diet and 15-25 H. virescens eggs. The compounds were formulated using a solution containing 75% v/v water and 25% v/v DMSO. Different concentrations of formulated compounds were sprayed onto the insect diet at 10 μl, using a custom built micro atomizer, at two replications.
After application, microtiter plates were incubated at about 28±1° C. and about 80±5% relative humidity for 5 days. Egg and larval mortality was then visually assessed.

[4] = test system: Mediterranean Fruitfly (Ceratitis capitata); assay: Mediterranean fruitfly microtiter plate diet test; conditions: 120 h, read-out: mortality in comparison with untreated controls
[5] = test system: Green Peach Aphid (Myzus persicae); assay: Green peach aphid systemic test on artificial diet in microtiter plates; type: in vivo; conditions: 72 h, adult aphids on treated artificial diet, 3 days, read-out: mortality in comparison with untreated controls
From the text: B.2 Green Peach Aphid (Myzus persicae)
For evaluating control of green peach aphid (Myzus persicae) through systemic means the test unit consisted of 96-well-microtiter plates containing liquid artificial diet under an artificial membrane.
The compounds were formulated using a solution containing 75% v/v water and 25% v/v DMSO. Different concentrations of formulated compounds were pipetted into the aphid diet, using a custom built pipetter, at two replications.
After application, 5-8 adult aphids were placed on the artificial membrane inside the microtiter plate wells. The aphids were then allowed to suck on the treated aphid diet and incubated at about 23±1° C. and about 50±5% relative humidity for 3 days. Aphid mortality and fecundity was then visually assessed.

[6] = test system: Orchid Thrips (Dichromothrips Corbetti); assay: Orchid thrips floral-immersion test; type: in vivo; conditions: orchid petals dipped, adult thrips, 72 hours after treatment, read-out: mortality in comparison with untreated controls
Protocol: B.7 Orchid Thrips (Dichromothrips Corbetti)
Dichromothrips corbetti adults used for bioassay were obtained from a colony maintained continuously under laboratory conditions. For testing purposes, the test compound is diluted in a 1:1 mixture of acetone:water (vol:vol), plus Kinetic HV at a rate of 0.01% v/v.
Thrips potency of each compound was evaluated by using a floral-immersion technique. All petals of individual, intact orchid flowers were dipped into treatment solution and allowed to dry in Petri dishes. Treated petals were placed into individual resealable plastic along with about 20 adult thrips. All test arenas were held under continuous light and a temperature of about 28° C. for duration of the assay. After 3 days, the numbers of live thrips were counted on each petal. The percent mortality was recorded 72 hours after treatment.

[7] = test system: Boll Weevil (Anthonomus grandis); assay: Boll weevil microtiter plate diet test; type: in vivo; conditions: 120 h, sprayed onto insect diet with eggs, egg and larval mortality after 5 days, read-out: mortality in comparison with untreated controls
Protocol: B.6 Boll Weevil (Anthonomus grandis)
For evaluating control of boll weevil (Anthonomus grandis) the test unit consisted of 96-well-microtiter plates containing an insect diet and 5-10 A. grandis eggs.
The compounds were formulated using a solution containing 75% v/v water and 25% v/v DMSO. Different concentrations of formulated compounds were sprayed onto the insect diet at 5 μl, using a custom built micro atomizer, at two replications.
After application, microtiter plates were incubated at about 25±1° C. and about 75±5% relative humidity for 5 days. Egg and larval mortality was then visually assessed.

O=C(NCC1CC(F)(F)C1)c1ccc(C2=NSC(c3cc(Cl)c(Cl)c(Cl)c3)(C(F)(F)F)C2)c2ccccc12 (stereo not drawn) [Compound 2-1, N-[(3,3-difluorocyclobutyl)methyl]-4-[5-(3,4,5-trichlorophenyl)-5-(trifluoromethyl)-4H-isothiazol-3-yl]naphthalene-1-carboxamide]
≥ 75%: mortality at 500 ppm [1] | mortality at 2500 ppm [2] | mortality at 2500 ppm [3] | mortality at 2500 ppm [4] | mortality at 2500 ppm [5] | mortality at 500 ppm [6] | mortality at 2500 ppm [7]

O=C(NCC(F)(F)F)N/N=C/c1ccc(C2=NSC(c3cc(Cl)c(Cl)c(Cl)c3)(C(F)(F)F)C2)c2ccccc12 (stereo not drawn) [Compound 1-1, 1-[(E)-[4-[5-(3,4,5-trichlorophenyl)-5-(trifluoromethyl)-4H-isothiazol-3-yl]-1-naphthyl]methyleneamino]-3-(2,2,2-trifluoroethyl)urea]
≥ 75%: mortality at 500 ppm [1] | mortality at 2500 ppm [3] | mortality at 2500 ppm [4] | mortality at 2500 ppm [5] | mortality at 2500 ppm [7]
